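In this assay, cells in 96-well plates receive the compound at five concentrations for 48 hours. Endpoints are linearly interpolated between the surrounding concentrations. Abbreviation: GI50, concentration required for 50% inhibition of growth.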 Calls of active or inactive are those of the source. Rule as the data show it: active = GI50 up to about 1.1 µM and inactive = higher.
Tests used:
Experiment in all cases: NCI anticancer screen, dose series, 48 h
ACHN = test system: ACHN
CCRF-CEM = test system: CCRF-CEM
SNB-19 = test system: SNB-19
SF-539 = test system: SF-539
HOP-62 = test system: HOP-62
OVCAR-3 = test system: OVCAR-3
COLO 205 = test system: COLO 205
EKVX = test system: EKVX
NCI-H460 = test system: NCI-H460
MOLT-4 = test system: MOLT-4
U-251 = test system: U-251
SR = test system: SR
SK-OV-3 = test system: SK-OV-3
KM12 = test system: KM12
UACC-62 = test system: UACC-62
MDA-MB-435 = test system: MDA-MB-435
T47D = test system: T47D
PC-3 = test system: PC-3
MDA-MB-231 = test system: MDA-MB-231

SMILES	GI50 (ACHN)	GI50 (CCRF-CEM)	GI50 (SNB-19)	GI50 (SF-539)	GI50 (HOP-62)	GI50 (OVCAR-3)	GI50 (COLO 205)	GI50 (EKVX)	GI50 (NCI-H460)	GI50 (MOLT-4)	GI50 (U-251)	GI50 (SR)	GI50 (SK-OV-3)	GI50 (KM12)	GI50 (UACC-62)	GI50 (MDA-MB-435)	GI50 (T47D)	GI50 (PC-3)	GI50 (MDA-MB-231)
CCc1ccccc1NC(=O)/C(CC(=O)c1c(C)[n+]([O-])c2ccccc2[n+]1[O-])=N\NS(=O)(=O)c1ccc(C)cc1	57 µM (inactive)	16.7 µM (inactive)	> 100 µM (inactive)	36.6 µM (inactive)	> 100 µM (inactive)	12.1 µM (inactive)	36.8 µM (inactive)	46 µM (inactive)	25.6 µM (inactive)	18 µM (inactive)	27 µM (inactive)	16.6 µM (inactive)	> 100 µM (inactive)	36.9 µM (inactive)	18.9 µM (inactive)				
CC(C)[Si](OCC1CC(C[C@H]2CC(C[C@H]3C[C@@H](CO[Si](C(C)C)(C(C)C)C(C)C)OC(C)(C)O3)OC(C)(C)O2)OC(C)(C)O1)(C(C)C)C(C)C (some centres not stated)	> 100 µM (inactive)	> 100 µM (inactive)	> 100 µM (inactive)	> 100 µM (inactive)	> 100 µM (inactive)	> 100 µM (inactive)	> 100 µM (inactive)	> 100 µM (inactive)	> 100 µM (inactive)	> 100 µM (inactive)	> 100 µM (inactive)	> 100 µM (inactive)	> 100 µM (inactive)	> 100 µM (inactive)	> 100 µM (inactive)				
CC(=O)OC(=O)O/C=C\CCl	> 100 µM (inactive)	93.8 µM (inactive)	> 100 µM (inactive)	> 100 µM (inactive)	> 100 µM (inactive)	> 100 µM (inactive)	> 100 µM (inactive)		> 100 µM (inactive)	38 µM (inactive)	> 100 µM (inactive)	42 µM (inactive)	> 100 µM (inactive)	> 100 µM (inactive)	> 100 µM (inactive)				
COc1ccc(C2ON(c3ccccc3)CC=C2C)cc1 (configuration not stated)	79.1 µM (inactive)	33.7 µM (inactive)	> 100 µM (inactive)	> 100 µM (inactive)	> 100 µM (inactive)	> 100 µM (inactive)	99.3 µM (inactive)	> 100 µM (inactive)	> 100 µM (inactive)	52.4 µM (inactive)	99.8 µM (inactive)	37.2 µM (inactive)	> 100 µM (inactive)	99.1 µM (inactive)	87.1 µM (inactive)				
C[n+]1cccc(NC(=O)c2ccc(NC(=O)C34CCC(C(=O)Nc5ccc(C(=O)Nc6ccc[n+](C)c6)cc5)(CC3)CC4)cc2)c1	17.9 µM (inactive)	15.2 µM (inactive)	24.9 µM (inactive)	80.5 µM (inactive)	25.5 µM (inactive)		> 10 µM (inactive)	26.9 µM (inactive)	7.45 µM (inactive)	56.2 µM (inactive)	27.9 µM (inactive)	21.3 µM (inactive)		1.92 µM (inactive)	> 100 µM (inactive)				
O=C1OC(c2ccccc2)C2CC3CC4(CCC3CN12)OCCO4 (configuration not stated)		> 100 µM (inactive)	> 100 µM (inactive)	> 100 µM (inactive)	> 100 µM (inactive)	> 100 µM (inactive)	> 100 µM (inactive)	> 100 µM (inactive)	> 100 µM (inactive)	> 100 µM (inactive)	> 100 µM (inactive)	> 100 µM (inactive)	> 100 µM (inactive)	> 100 µM (inactive)	21.5 µM (inactive)				
C/C(CC(=O)Nc1ccc(Cl)c(Cl)c1)=N/NC(=O)C[n+]1ccccc1	> 100 µM (inactive)	85.3 µM (inactive)	> 100 µM (inactive)	> 100 µM (inactive)	> 100 µM (inactive)	> 100 µM (inactive)	31.8 µM (inactive)	> 100 µM (inactive)	77.4 µM (inactive)	94.2 µM (inactive)	> 100 µM (inactive)	23.7 µM (inactive)	> 100 µM (inactive)	88.7 µM (inactive)	> 100 µM (inactive)				
O=c1cccccc1NCCCNc1cccccc1=O	> 100 µM (inactive)	> 100 µM (inactive)	> 100 µM (inactive)	> 100 µM (inactive)	> 100 µM (inactive)	> 100 µM (inactive)	> 100 µM (inactive)	> 100 µM (inactive)	41.6 µM (inactive)	> 100 µM (inactive)	> 100 µM (inactive)	> 100 µM (inactive)	> 100 µM (inactive)	> 100 µM (inactive)	> 100 µM (inactive)				
c1cc(-c2ccc(-c3ccsc3)s2)cs1	35.9 µM (inactive)	12.9 µM (inactive)		36.4 µM (inactive)	39.6 µM (inactive)	> 100 µM (inactive)	> 100 µM (inactive)	85.5 µM (inactive)	> 100 µM (inactive)	70.6 µM (inactive)	19.5 µM (inactive)	28.2 µM (inactive)	> 100 µM (inactive)	> 10 µM (inactive)	54.2 µM (inactive)	> 100 µM (inactive)	> 100 µM (inactive)		
Cc1cc(Cl)ccc1N1C(=O)C(=O)C(c2nc3ccccc3o2)C(=O)C1=O	> 100 µM (inactive)	23.7 µM (inactive)	> 100 µM (inactive)	> 100 µM (inactive)	> 100 µM (inactive)	61.1 µM (inactive)	31.1 µM (inactive)	> 100 µM (inactive)	> 100 µM (inactive)	30.4 µM (inactive)	> 100 µM (inactive)	34 µM (inactive)	> 100 µM (inactive)	> 100 µM (inactive)	65 µM (inactive)				
O=C(O)c1ccc([N+](=O)[O-])c2c(=O)c3ccccc3[nH]c12	> 100 µM (inactive)	> 100 µM (inactive)	> 100 µM (inactive)	> 100 µM (inactive)	> 100 µM (inactive)		> 100 µM (inactive)		> 100 µM (inactive)	> 100 µM (inactive)	> 100 µM (inactive)	> 100 µM (inactive)	> 100 µM (inactive)	> 100 µM (inactive)	> 100 µM (inactive)				
CC1(C)CC(=O)c2c(nc3ccc4ccccc4c3c2-c2ccc(NC(=O)CCC(=O)Nc3ccc(-c4c5c(nc6ccc7ccccc7c46)CC(C)(C)CC5=O)cc3)cc2)C1	> 100 µM (inactive)	> 100 µM (inactive)	> 100 µM (inactive)	> 100 µM (inactive)	> 100 µM (inactive)	> 100 µM (inactive)	> 100 µM (inactive)	> 100 µM (inactive)	> 100 µM (inactive)	> 100 µM (inactive)	> 100 µM (inactive)	> 100 µM (inactive)	> 100 µM (inactive)	> 100 µM (inactive)		> 100 µM (inactive)	> 100 µM (inactive)	> 100 µM (inactive)	> 100 µM (inactive)
Cc1ccc2c(C3Cc4ccccc4N3C(=O)/C=C\C(=O)O)c(C)[nH]c2c1 (configuration not stated)	> 100 µM (inactive)	23.5 µM (inactive)	40.7 µM (inactive)	47.2 µM (inactive)	30.1 µM (inactive)	19.6 µM (inactive)	22.3 µM (inactive)	78.7 µM (inactive)	> 100 µM (inactive)	29.5 µM (inactive)	44.6 µM (inactive)	25.1 µM (inactive)	> 100 µM (inactive)	35.2 µM (inactive)	29.2 µM (inactive)				
CCN(CC)c1ccc(/N=N/c2ccc([N+](=O)[O-])cc2OC(=O)/C=C/c2ccccc2)c(OC(=O)/C=C/c2ccccc2)c1	2.1 µM (inactive)	3.02 µM (inactive)	> 24.2 µM (inactive)	2.89 µM (inactive)	2.12 µM (inactive)	3.18 µM (inactive)	> 100 µM (inactive)	5.58 µM (inactive)	0.7 µM (active)	5.16 µM (inactive)	5.43 µM (inactive)	4.27 µM (inactive)	4.16 µM (inactive)	3.83 µM (inactive)	8.11 µM (inactive)				
COC(=O)N/N=C(/Cc1occc(=O)c1O)C(=O)Nc1ccc([N+](=O)[O-])cc1[N+](=O)[O-]	> 100 µM (inactive)	> 100 µM (inactive)	> 100 µM (inactive)	> 100 µM (inactive)	> 100 µM (inactive)		> 100 µM (inactive)	> 100 µM (inactive)	> 100 µM (inactive)	> 100 µM (inactive)	> 100 µM (inactive)	> 100 µM (inactive)	> 100 µM (inactive)	> 100 µM (inactive)	> 100 µM (inactive)				
CC(=O)OC1COC(N2C(=O)C(=O)c3cc(Br)c([N+](=O)[O-])cc32)C(OC(C)=O)C1OC(C)=O (configuration not stated)	> 100 µM (inactive)	37.6 µM (inactive)	> 100 µM (inactive)	> 100 µM (inactive)	> 100 µM (inactive)	48.2 µM (inactive)	> 100 µM (inactive)	96.4 µM (inactive)	> 100 µM (inactive)	35 µM (inactive)	> 100 µM (inactive)	29.1 µM (inactive)	96.8 µM (inactive)	> 100 µM (inactive)	49.3 µM (inactive)				
Cc1ccc(NC(=O)CCc2nnc3s/c(=C\c4cccc([N+](=O)[O-])c4)c(=O)n23)cc1	84.7 µM (inactive)	66.1 µM (inactive)	84.5 µM (inactive)	25.3 µM (inactive)	16.7 µM (inactive)	> 100 µM (inactive)	> 100 µM (inactive)	> 100 µM (inactive)	> 100 µM (inactive)	> 100 µM (inactive)	47.9 µM (inactive)	> 100 µM (inactive)	> 100 µM (inactive)	> 100 µM (inactive)	> 100 µM (inactive)				

— ChEMBL document CHEMBL1201862, “PubChem BioAssay data set” (2004)
